Results taken from the NIST ThermoML archive (doi:10.1016/j.tca.2017.08.004).

Assays:
[1] = Crystal; for vapor or sublimation pressure: Transpiration method
[2] = Molar enthalpy of transition or fusion; details: Crystal; DSC

CC(C)c1ccc(N=C2SCC3CCCN2C3)cc1 (stereo unspecified)
[1]
Details | vapor or sublimation pressure [kPa]
308.15 K | 7.9e-06
310.15 K | 1.01e-05
311.15 K | 1.19e-05
313.15 K | 1.61e-05
314.15 K | 1.86e-05
315.15 K | 2.13e-05
316.15 K | 2.3e-05
317.15 K | 2.74e-05
318.15 K | 3.07e-05
319.15 K | 3.29e-05
320.15 K | 3.89e-05
322.15 K | 4.8e-05
323.15 K | 5.57e-05

N#Cc1ccc(N=C2SCC3CCCN2C3)cc1 (stereo unspecified)
[1]
Details | vapor or sublimation pressure [kPa]
341.15 K | 4.41e-05
343.15 K | 6.35e-05
345.15 K | 8.28e-05
347.15 K | 0.0001196
349.15 K | 0.0001553
351.15 K | 0.0002074
353.15 K | 0.0002772
354.15 K | 0.0002989
356.15 K | 0.0004234
358.15 K | 0.000541
360.15 K | 0.0007001
361.15 K | 0.0008286

Fc1ccc(N=C2[Se]CC3CCCN2C3)cc1 (stereo unspecified) [N-(4-fluorophenyl)-3-selena-1-azabicyclo[3.3.1]nonan-2-imine]
[1]
Details | Normal melting temperature [°C] | vapor or sublimation pressure [kPa]
344.15 K | – | 6.71e-05
346.15 K | – | 8.23e-05
348.15 K | – | 0.0001009
350.15 K | – | 0.0001254
352.15 K | – | 0.0001539
354.15 K | – | 0.0001821
357.15 K | – | 0.0002441
359.15 K | – | 0.0002956
360.15 K | – | 0.0003273
361.15 K | – | 0.00036
362.15 K | – | 0.0003964
363.15 K | – | 0.0004316
364.15 K | – | 0.0004719
365.15 K | – | 0.0005306
DTA | 103.1 | –

Details | Molar enthalpy of transition or fusion [kcal/mol]
[2] | 5.23

CC(=O)c1ccc(N=C2SCC3CCCN2C3)cc1 (stereo unspecified)
[1]
Details | vapor or sublimation pressure [kPa]
370.15 K | 1.72e-05
372.15 K | 2.17e-05
373.15 K | 2.52e-05
374.15 K | 2.65e-05
375.15 K | 3.08e-05
377.15 K | 3.73e-05
379.15 K | 4.55e-05
381.15 K | 5.67e-05
383.15 K | 6.72e-05
385.15 K | 8.05e-05
387.15 K | 9.63e-05
389.15 K | 0.0001225
390.15 K | 0.0001287
391.15 K | 0.0001437
392.15 K | 0.0001637
